Test results reported in patent US20230338349A1, “LOW DOSE REGIMEN AND FORMULATION OF A 5-METHYL-1,2,4-OXADIAZOL-3-YL COMPOUND” (Eli Lilly and Company, priority 2020, published 2023).

Experiment: Plasma concentration of compound of Formula I in the PET occupancy study
Type: in vivo
Conditions: human, healthy subjects; for concentration at 0.5 h: approx. 0.5 h; for concentration at 1 h: approx. 1 h; for concentration at 2 h: approx. 2 h; for concentration at 3 h: approx. 3 h; for concentration at 4 h: approx. 4 h; for concentration at 5 h: approx. 5 h; for concentration at 6 h: approx. 6 h; for concentration at 8 h: approx. 8 h; for concentration at 12 h: approx. 12 h; for concentration at 24 h: approx. 24 h
Protocol: Healthy subjects are assigned to 1 of 4 cohorts with 4 subjects in each cohort completing the study. All subjects undergo one baseline PET scan and two post-dose PET scans. A baseline PET scan is performed from up to approximately 14 days before dosing of the compound of Formula I. Overall, each subject receives a single dose of the compound of Formula I and 3 administrations of the [^18F]LSN3316612 PET tracer. Dosing of the compound of Formula I occurs after completion of the baseline PET scan. Scans are conducted at approximately 2 and 24 hours post-dose for the 0.25 mg and 5 mg doses of the compound of Formula I, and at approximately 2 and 24 hours or 30 and 54 hours post-dose for the 1 mg dose of the compound of Formula I. Dynamic PET data of the brain are acquired over 120 min immediately following tracer injection. EO is summarized by the compound of Formula I dose and approximate scanning time.
The compound of Formula I is administered orally in capsule formulation for doses≥3 mg. For doses lower than 3 mg, the compound of Formula I is weighed into a suitable container and dissolved in an appropriate volume of degassed Sprite® or diluent.
Arterial blood samples are collected from all subjects during each PET scan to measure radioactivity to provide input for the PET tracer kinetic analysis. Venous blood samples are collected following dosing of compound of Formula I to measure plasma concentrations of compound of Formula I using a validated liquid chromatography with tandem mass spectrometry assay.

Compound: CC(=O)Nc1nc(F)c(CN2CC[C@H](OCc3noc(C)n3)C[C@@H]2C)s1 [compound of Formula I, N-[4-fluoro-5-[[(2S,4S)-2-methyl-4-[(5-methyl-1,2,4-oxadiazol-3-yl)methoxy]-1-piperidyl]methyl]thiazol-2-yl]acetamide]
- concentration at 0.5 h (single oral dose 0.25 mg): 0.934 ng/mL
- concentration at 1 h (single oral dose 0.25 mg): 0.595 ng/mL
- concentration at 2 h (single oral dose 0.25 mg): 0.373 ng/mL
- concentration at 3 h (single oral dose 0.25 mg): 0.391 ng/mL
- concentration at 4 h (single oral dose 0.25 mg): 0.367 ng/mL
- concentration at 5 h (single oral dose 0.25 mg): 0.39 ng/mL
- concentration at 6 h (single oral dose 0.25 mg): 0.357 ng/mL
- concentration at 8 h (single oral dose 0.25 mg): 0.294 ng/mL
- concentration at 12 h (single oral dose 0.25 mg): 0.213 ng/mL
- concentration at 24 h (single oral dose 0.25 mg): 0.107 ng/mL
- concentration at 0.5 h (single oral dose 1 mg): 6.29 ng/mL
- concentration at 1 h (single oral dose 1 mg): 6.24 ng/mL
- concentration at 2 h (single oral dose 1 mg): 5.75 ng/mL
- concentration at 3 h (single oral dose 1 mg): 4.97 ng/mL
- concentration at 4 h (single oral dose 1 mg): 4.28 ng/mL
- concentration at 5 h (single oral dose 1 mg): 3.87 ng/mL
- concentration at 6 h (single oral dose 1 mg): 3.08 ng/mL
- concentration at 8 h (single oral dose 1 mg): 2.45 ng/mL
- concentration at 12 h (single oral dose 1 mg): 1.42 ng/mL
- concentration at 24 h (single oral dose 1 mg): 0.412 ng/mL
- concentration at 30 h (single oral dose 1 mg, approx. 30 h): 0.222 ng/mL
- concentration at 54 h (single oral dose 1 mg, approx. 54 h): 0.0735 ng/mL
- concentration at 0.5 h (single oral dose 5 mg): 32.4 ng/mL
- concentration at 1 h (single oral dose 5 mg): 30.7 ng/mL
- concentration at 2 h (single oral dose 5 mg): 36 ng/mL
- concentration at 3 h (single oral dose 5 mg): 31.9 ng/mL
- concentration at 4 h (single oral dose 5 mg): 31.5 ng/mL
- concentration at 5 h (single oral dose 5 mg): 30.6 ng/mL
- concentration at 6 h (single oral dose 5 mg): 25.3 ng/mL
- concentration at 8 h (single oral dose 5 mg): 17.8 ng/mL
- concentration at 12 h (single oral dose 5 mg): 12.5 ng/mL
- concentration at 24 h (single oral dose 5 mg): 3.07 ng/mL
